The assay deals with T1, P2X7 (Homo sapiens, UniProt Q99572).
T1 sequence (Q99572 1-595): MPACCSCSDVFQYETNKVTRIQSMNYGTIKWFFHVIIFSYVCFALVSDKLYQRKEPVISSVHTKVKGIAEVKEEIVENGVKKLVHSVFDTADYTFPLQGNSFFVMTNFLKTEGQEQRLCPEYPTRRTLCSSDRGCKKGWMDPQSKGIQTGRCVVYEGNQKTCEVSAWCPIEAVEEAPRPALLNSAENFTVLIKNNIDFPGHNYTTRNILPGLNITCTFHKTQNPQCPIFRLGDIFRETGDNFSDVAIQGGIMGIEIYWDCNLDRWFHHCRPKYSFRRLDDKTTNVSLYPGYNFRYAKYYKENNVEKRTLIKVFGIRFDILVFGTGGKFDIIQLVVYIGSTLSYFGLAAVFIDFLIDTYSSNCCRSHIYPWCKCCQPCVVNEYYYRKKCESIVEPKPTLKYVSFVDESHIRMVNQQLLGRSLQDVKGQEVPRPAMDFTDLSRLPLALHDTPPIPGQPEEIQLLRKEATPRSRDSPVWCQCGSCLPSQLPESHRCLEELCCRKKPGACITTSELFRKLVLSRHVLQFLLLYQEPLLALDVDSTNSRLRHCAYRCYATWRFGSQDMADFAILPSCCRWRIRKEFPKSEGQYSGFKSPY
The experiment in a line: whole-cell patch clamp, ATP concentration-response in low-DIC bath. The format is cell-based.

Data on one compound can be found in PMC4886280 (The Journal of General Physiology, 2016).

In general, EC50 refers to the concentration at which the effect is half-maximal. High values mean a need for much substance, low ones an effect from little substance.

Each structure is given as a SMILES string.

In turn, `Nc1ncnc2c1ncn2[C@@H]1O[C@H](COP(=O)(O)OP(=O)(O)OP(=O)(O)O)[C@@H](O)[C@H]1O` [ATP] had an EC50 of 339 ± 27 µM.
